US8980848B2, “Flavonoid dimers and their use” (The Hong Kong Polytechnic University, priority 2010, dated 2015)
Read-outs that look alike come from different tables or passages of the source.

Experiments:
[1] = test system: Ld39 promastigotes (SSG-resistant); assay: In vitro anti-promastigote activity, Ld39; format: cell-based, Leishmania donovani; conditions: read-out: Anti-promastigotes activity (IC50, μM) Ld39
Description: (§1) Cell Lines and Cell Culture. Promastigotes of Leishmania donovani (wild type LdAG83, pentamidine-resistant LdAG83-PentR50, and SSG-resistant Ld39) and Leishmania major [MHOM/IL/67/JERICHO II (Lm50122), from ATCC] were used in this study.
(§2) In Vitro Anti-Promastigote Activity. The viability of promastigotes was determined by the Cell Titer 96° Aqueous Assay (Promega) that employs a tetrazolium compound (MTS, 2-(4,5-Dimethylthiazol-2-yl-)-5-[3-(carboxymethoxy)phenyl]-2-(4-sulfophenyl)-2H-tetrazolium) and electron coupling reagent, phenazine methosulfate (PMS).^7 Promastigotes were seeded into 96-well flat bottom microtiter plate at 1×10^5 cells per well in a final volume of 100 μL medium and incubated with a series concentration of synthetic flavonoid dimers or known antileishmanials. The parasites were incubated at 27° C. for 72 hrs. Fresh solution of 2 mg/mL MTS and 0.92 mg/mL PMS were prepared in a ratio of 20:1 (MTS:PMS). After 72 hrs incubation, 10 μL of MTS:PMS mixture was added into each well of microtiter plate. The plate was then incubated at 27° C. for 4 hrs for color development. After 4 hrs incubation, the OD values were determined at 490 nm using automatic microtiter plate reader (Bio-Rad).

[2] = test system: LdAG83 promastigotes (wild type); assay: In vitro anti-promastigote activity, LdAG83; format: cell-based, Leishmania donovani; conditions: read-out: Anti-promastigotes activity (IC50, μM) LdAG83
Description: as §1, §2

Lm50122 promastigotes = assay: In vitro anti-promastigote activity, Lm50122; format: cell-based, Leishmania major; conditions: Leishmania major, 72 h, read-out: Anti-promastigotes activity (IC50, μM) Lm50122
Description: as §1, §2

PEM cells = assay: Cytotoxicity, primary mouse peritoneal elicited macrophage (PEM); format: cell-based
Description: (§3) (a) Mouse Macrophage Raw 264.7 and Primary Mouse PEM Cells. The cytotoxicity assay of reference antileishmanial compounds and the compounds of this invention was performed against mouse macrophage cell line, Raw 264.7 and primary mouse PEM cells in order to calculate the therapeutic index (IC50 value for cytotoxicity of the compounds divided by IC50 value for antileishmanial activity of the compounds). The cells were grown in supplemented DMEM media in an atmosphere of 95% air with 5% CO2 at 37° C. In brief, Raw264.7 cells and PEM cells were seeded into 96-well flat bottom microtiter plate at 1×10^4cells and 2×10^4 cells per well in a final volume of 100 μL media, respectively. A graded dose of flavonoid dimers or antileishmanials was added into wells. The plate was incubated at 37° C. for 72 hrs at the atmosphere 5% CO2 in the air. The % of survivors was determined.

Ld39 amastigotes = assay: In vitro anti-amastigote activity, Ld39 amastigotes in mouse PEM; conditions: for IC50: Leishmania donovani, in Mus musculus
Description: Peritoneal elicited macrophages (PEM) from mouse were obtained as previously described. A round cover slip (12 mm in diameter) was placed into each well of 24-well culture plate. Mouse macrophages were resuspended in supplemented DMEM media containing 10% heat inactivated fetal bovine serum (v/v), 100 U/mL penicillin and 100 μg/mL streptomycin and seeded into each well at a cell density of 1×10^5 cells per 500 μL. Macrophages were allowed to attach overnight and the non-adherent cells were removed by gentle washing twice with unsupplemented DMEM media. […] Non-internalized promastigotes were removed by washing with unsupplemented DMEM media for two times. Infected macrophages were further incubated in 500 μL supplemented DMEM media in the presence or absence of flavonoid dimers or known antileishmanials for 72 hrs at 37° C. After incubation, the cover slips were stained with Giemsa and the amastigotes inside each macrophage (100 macrophages per treatment) were counted under microscope. The percentage of macrophages infected and number of amastigotes per 100 macrophages was enumerated.
The % of infected macrophage and the number of amastigotes per 100 macrophages were counted by staining with Giemsa.

[3] = test system: LdAG83PentR50 promastigotes (pentamidine-resistant); assay: microbe, parasite or virus in culture; format: cell-based, Leishmania donovani; conditions: read-out: Anti-promastigotes activity (IC50, μM) LdAG83PentR50
Description: as §1
No pentamidine or sodium stibogluconate was added to the L. donovani wild type (LdAG83) and L. major wild type (Lm50122). The mouse macrophage cell line, Raw264.7, was used for the determination of the relative toxicity of the compounds of the invention. […] They were maintained at 37° C. in a humidified atmosphere with 5% CO2. The cells were split constantly after a confluent monolayer has been formed. To split cells, the plate was washed briefly with PBS, treated with 0.05% trypsin-EDTA and harvested by centrifugation.
as §2

Raw264.7 cells = assay: Cytotoxicity, mouse macrophage Raw264.7; format: cell-based
Description: as §3

Leishmania promastigotes = assay: Anti-promastigote activity over the Leishmania strains; format: cell-based, Leishmania donovani, Leishmania major; conditions: for IC50: different Leishmania strains, read-out: Anti-promastigote IC50, range over strains
Description: as §1, §2

[4] = Tumor cell line cytotoxicity of flavonoid dimers, LCC6MDR; format: cell-based, human; conditions: human, LCC6MDR cells, IC50 of compound alone
Outline: (§4)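 LCC6, LCC6MDR and L929 cells seeded at 1×10^4 cells/well and exposed to graded doses of flavonoid dimers. Incubation 72 hrs at 37° C., 5% CO2. Read-out: % survivors.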

[5] = Tumor cell line cytotoxicity of flavonoid dimers, LCC6; format: cell-based, human; conditions: human, LCC6 cells, IC50 of compound alone
Outline: as §4

[6] = Cytotoxicity of flavonoid dimers, L929 mouse fibroblast; format: cell-based; conditions: mouse, L929 fibroblast cells, IC50 of compound alone, 72 hrs, mouse fibroblast
Outline: as §4

Pgp (LCC6MDR cells) = Pgp (LCC6MDR cells) (Homo sapiens, UniProt P08183); assay: Cell proliferation assay: Pgp-modulating activity, reversal of anticancer drug resistance in LCC6MDR cells; conditions: for RF (Relative Fold), cpd at 0.5 μM: RF = (IC50 without modulator)/(IC50 with 0.5 μM modulator), paclitaxel; for EC50: EC50 of compounds for reversing anticancer drug resistance (nM), Paclitaxel; for Therapeutic index: IC50 of compounds for L929/EC50 of compounds for lowering paclitaxel drug resistance
Chain of Pgp (LCC6MDR cells) (P08183 whole entry): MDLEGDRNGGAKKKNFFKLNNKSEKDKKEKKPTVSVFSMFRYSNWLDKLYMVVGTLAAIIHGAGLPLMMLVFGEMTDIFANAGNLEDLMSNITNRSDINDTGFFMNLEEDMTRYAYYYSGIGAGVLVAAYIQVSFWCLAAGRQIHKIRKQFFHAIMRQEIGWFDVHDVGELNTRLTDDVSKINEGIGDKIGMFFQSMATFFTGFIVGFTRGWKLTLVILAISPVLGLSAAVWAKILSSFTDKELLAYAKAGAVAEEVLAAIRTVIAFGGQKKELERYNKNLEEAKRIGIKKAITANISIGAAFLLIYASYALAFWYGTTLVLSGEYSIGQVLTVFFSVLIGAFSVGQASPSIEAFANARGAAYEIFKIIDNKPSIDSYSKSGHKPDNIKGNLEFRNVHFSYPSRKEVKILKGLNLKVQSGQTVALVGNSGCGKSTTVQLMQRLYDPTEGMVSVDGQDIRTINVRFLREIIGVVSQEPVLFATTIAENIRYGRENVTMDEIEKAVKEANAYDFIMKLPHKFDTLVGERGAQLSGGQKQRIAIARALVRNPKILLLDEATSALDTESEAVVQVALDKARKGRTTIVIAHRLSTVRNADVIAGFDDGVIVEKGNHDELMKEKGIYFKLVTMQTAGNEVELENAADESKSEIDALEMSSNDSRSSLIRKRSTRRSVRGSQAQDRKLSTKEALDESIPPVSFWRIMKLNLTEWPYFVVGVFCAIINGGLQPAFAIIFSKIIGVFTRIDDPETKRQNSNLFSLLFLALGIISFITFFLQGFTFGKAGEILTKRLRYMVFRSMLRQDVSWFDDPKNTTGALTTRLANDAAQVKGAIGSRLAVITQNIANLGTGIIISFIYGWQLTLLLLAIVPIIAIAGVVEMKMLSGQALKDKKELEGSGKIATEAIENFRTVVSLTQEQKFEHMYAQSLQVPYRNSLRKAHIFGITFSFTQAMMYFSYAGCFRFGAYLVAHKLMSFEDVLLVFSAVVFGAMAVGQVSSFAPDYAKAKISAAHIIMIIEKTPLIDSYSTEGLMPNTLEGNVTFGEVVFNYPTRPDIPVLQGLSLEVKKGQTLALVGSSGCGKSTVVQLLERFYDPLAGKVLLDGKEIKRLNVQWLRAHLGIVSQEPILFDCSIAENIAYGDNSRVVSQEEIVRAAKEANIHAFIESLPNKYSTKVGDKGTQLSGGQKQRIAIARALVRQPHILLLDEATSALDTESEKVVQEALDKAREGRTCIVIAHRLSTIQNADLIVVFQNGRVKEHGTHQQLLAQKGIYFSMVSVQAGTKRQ
Description: Cell Proliferation Assay. 6,000 cells of LCC6 or LCC6MDR and anticancer drugs (paclitaxel, vinblastine, vincristine, doxorubicin and mitoxantrone) were mixed with or without modulators to a final volume of 200 μL in each well of 96-well plates. […] The plates were then incubated for 5 days at 37° C. […] IC50 values were calculated from the dose-response curves of MTS assays (Prism 4.0).

LCC6MDR cells = assay: Tumor cell line cytotoxicity of flavonoid dimers, LCC6MDR; format: cell-based, human; conditions: IC50 of compound alone, 72 hrs
Outline: as §4

LCC6 cells = assay: Tumor cell line cytotoxicity of flavonoid dimers, LCC6; format: cell-based, human; conditions: IC50 of compound alone, 72 hrs
Outline: as §4

L929 cells = assay: Cytotoxicity of flavonoid dimers, L929 mouse fibroblast; format: cell-based; conditions: IC50 of compound alone, 72 hrs, mouse fibroblast; read-out: Cytotoxicity (μM) L929
Outline: as §4

[7] = Cytotoxicity over LCC6, LCC6MDR and L929 cell lines; format: cell-based, human, mouse; conditions: human, cancer lines LCC6, LCC6MDR and/or L929
Description: (b) Tumor Cell Line Cytotoxicity. The tumor cytotoxicity assays of flavonoid dimers were performed against LCC6, LCC6MDR and L929 cell lines. The cells were grown in supplemented DMEM media in an atmosphere of 95% air and 5% CO2 at 37° C. In brief, LCC6, LCC6MDR and L929 cells were seeded into 96-well flat bottom microtiter plate at 1×10^4 cells per well in a final volume of 100 μL media, respectively. A graded dose of flavonoid dimers was added into wells. The plate was incubated at 37° C. for 72 hrs at the atmosphere 5% CO2 in the air. The % of survivors was determined.

[8] = Leishmania donovani, 72 h, 3 days at 27° C., MTS
[9] = Mus musculus, Macrophage, Table 7, cytotoxicity
[10] = cytotoxicity, primary mouse macrophage, 72 hrs
[11] = 72 h, read-out: Ld39 (IC50, mM)

Compound	IC50 [1, 8] [µM]	IC50 (Lm50122 promastigotes; 3 days at 27° C., MTS) [µM]	IC50 (PEM cells; [9]) [µM]	IC50 (PEM cells; [10]) [µM]	IC50 (Ld39 amastigotes; [11]) [mM]	IC50 ([3]; Leishmania donovani, 72 h) [µM]	IC50 (Raw264.7 cells; Mus musculus, RAW264.7, 72 h) [µM]	IC50 (Leishmania promastigotes) [µM]	IC50 ([1]; Leishmania donovani, 72 h) [µM]	IC50 at 72 h [4] [µM]	IC50 at 72 h [5] [µM]	IC50 ([2]; Leishmania donovani, 72 h) [µM]	IC50 at 72 h [6] [µM]	IC50 (Lm50122 promastigotes) [µM]	RF (Relative Fold), cpd at 0.5 μM (Pgp (LCC6MDR cells); LCC6MDR)	EC50 (Pgp (LCC6MDR cells); LCC6MDR) [nM]	Therapeutic index (Pgp (LCC6MDR cells))	other results
NC[C@@H]1O[C@H](O[C@H]2[C@@H](O)[C@H](O[C@@H]3[C@@H](O)[C@H](N)C[C@H](N)[C@H]3O[C@H]3O[C@H](CO)[C@@H](O)[C@H](O)[C@H]3N)O[C@@H]2CO)[C@H](N)[C@@H](O)[C@@H]1O [Paromomycin, paromomycin, reference compound]	24.5 ± 2.4	94.5 ± 5.5	> 100	> 100	0.041	85.5 ± 13.5	> 100	24.5 to 94.5	–	–	–	–	–	–	–	–	–	IC50 [2, 8]: 62.6 ± 9.5 µM
O=c1cc(-c2ccc(OCCOCCN(CCOCCOc3ccc(-c4cc(=O)c5ccccc5o4)cc3)Cc3ccncc3)cc2)oc2ccccc12 [Compound 21, 1,13-Bis[4′-(4H-chromen-4-on-2-yl)phenyl]-N-(4-pyridylmethyl)-1,4,10,13-tetraoxa-7-azamidecane]	–	–	> 88	> 88	0.00063 ± 0.00012	0.13 ± 0.04	> 100	0.13 to 0.35	0.19 ± 0.03	> 100	> 100	0.18 ± 0.02	26.4 ± 2.7	0.35 ± 0.07	(6.9)	–	–	% of macrophage infected (Ld39 amastigotes; 5 μM, solvent control 100%): 20%; Number of amastigotes per 100 macrophages (Ld39 amastigotes; 5 μM, solvent control 887): 48; IC50 (Ld39 amastigotes; read-out: IC50 against Ld39 amastigotes): 0.00063 mM; Fold lower anti L. donovani promastigote activity than amphotericin B (Leishmania promastigotes; L. donovani): 2 fold
O=c1cc(-c2ccc(OCCOCCNCCOCCOc3ccc(-c4cc(=O)c5ccccc5o4)cc3)cc2)oc2ccccc12 [Compound 12a, 1,13-Bis[4′-(4H-chromen-4-on-2-yl)phenyl]-1,4,10,13-tetraoxa-7-azamidecane]	–	–	–	–	–	1.1	< 4	< 4	2.3	2.4 ± 0.7	3.3 ± 1	3.3	5.9 ± 0.6	–	(72.9)	305 ± 35	19.3	IC50 (Raw264.7 cells; 72 hrs, listed as 12): 2.1 ± 0.9 µM
CCCCCCCCCCCCCCCCOP(=O)([O-])OCC[N+](C)(C)C [Miltefosine, reference compound]	17.3 ± 2.1	9.8 ± 2.3	75.3 ± 9.4	75.3 ± 9.4	0.016 ± 0.0064	9.3 ± 2.4	20	4.3 to 17.3	–	–	–	–	–	–	–	–	–	–
O=C(O)CCC(=O)N(CCOCCOc1ccc(-c2cc(=O)c3ccccc3o2)cc1)CCOCCOc1ccc(-c2cc(=O)c3ccccc3o2)cc1 [Compound 23a, 1,13-Bis[4′-(4H-chromen-4-on-2-yl)phenyl]-N-(4-hydroxy-1,4-dioxobutyl)-1,4,10,13-tetraoxa-7-azamidecane]	–	–	–	–	–	–	–	–	–	–	–	–	–	–	(1.1)	–	–	IC50 ([1]; 3 days at 27° C., MTS): > 100 µM; IC50 (LCC6MDR cells): > 100 µM; IC50 (LCC6 cells): 78.4 ± 8.1 µM; IC50 ([2]; 3 days at 27° C., MTS): > 100 µM; IC50 ([3]; 3 days at 27° C., MTS): 27 µM; IC50 (Raw264.7 cells; 72 hrs): 65 µM
CC(C)(C)OC(=O)N(CCOCCOc1ccc(-c2cc(=O)c3ccccc3o2)cc1)CCOCCOc1ccc(-c2cc(=O)c3ccccc3o2)cc1 [Compound 16a, 1,13-Bis[4′-(4H-chromen-4-on-2-yl)phenyl]-N-(tert-butyloxycarbonyl)-1,4,10,13-tetraoxa-7-azamidecane]	–	–	–	–	–	1.1	> 100	–	1.6	6.2 ± 0.8	8 ± 2.5	3.2	< 11.1	–	(11.1)	320 ± 40	34.7	IC50 (L929 cells): 11.1 µM; Ability to restore paclitaxel sensitivity, fold higher than verapamil (Pgp (LCC6MDR cells); 1.0 μM, LCC6MDR): 24 fold; IC50 at 72 h [7]: < 8 µM
O=c1cc(-c2ccc(OCCOCCN(CCOCCOc3ccc(-c4cc(=O)c5ccccc5o4)cc3)Cc3ccccn3)cc2)oc2ccccc12 [Compound 22, 1,13-Bis[4′-(4H-chromen-4-on-2-yl)phenyl]-N-(2-pyridylmethyl)-1,4,10,13-tetraoxa-7-azamidecane]	–	–	–	–	–	–	53 ± 12.7	1.8 to 2.4	2.4 ± 1	29.7 ± 16.4	10 ± 1.2	2.3 ± 0.8	10	1.8 ± 0.6	(15.8)	–	–	Fold lower leishmanicidal activity than compound 21 (Leishmania promastigotes): about 10 fold
N=C(N)c1ccc(OCCCCCOc2ccc(C(=N)N)cc2)cc1 [Pentamidine, reference compound]	5.3 ± 0.8	7.7 ± 1	30.4 ± 10.5	30.4	> 0.03	74.7	30	5.3 to 74.7	–	–	–	–	–	–	–	–	–	IC50 [2, 8]: 16.2 µM
O=c1cc(-c2ccc(OCCOCCN(CCOCCOc3ccc(-c4cc(=O)c5ccccc5o4)cc3)Cc3ccc([N+](=O)[O-])cc3)cc2)oc2ccccc12 [Compound 19, 1,13-Bis[4′-(4H-chromen-4-on-2-yl)phenyl]-N-(4-nitrobenzyl)-1,4,10,13-tetraoxa-7-azamidecane]	–	–	–	–	–	–	70.3 ± 9.7	–	> 100	> 90	86.8 ± 1.8	> 100	88 ± 6.1	> 100	–	189 ± 1	465.6	IC50 at 72 h ([7]; mouse, LCC6MDR and L929 cell lines): > 90 µM
